Results on 18 compounds are retold here after PubChem BioAssay AID256 (DTP/NCI, 2004).

The subject of the assay is CD2F1 mice, L1210 leukemia ip, survival T/C. Kind of assay: NCI In Vivo Anticancer Drug Screen. Data for tumor model L1210 Leukemia (intraperitoneal) in CD2F1 (CDF1) mice. Conditions: higher = longer survival. In a few lines:
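Implant tumor; dose compound or vehicle; measure endpoint in both groups; report treated divided by control.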

[1] abbreviates: endpoint: mean survival time, dose: 50.0 mg/kg/injection, schedule: Q01DX009 (ip), vehicle: saline sonified.
[2] abbreviates: endpoint: mean survival time, dose: 12.5 mg/kg/injection, schedule: Q01DX009 (ip), vehicle: saline with Tween-80.
Setting [3] is: endpoint: mean survival time, dose: 25.0 mg/kg/injection, schedule: Q01DX009 (ip), vehicle: saline with Tween-80.
The mark [4] stands for this setting: endpoint: mean survival time, dose: 50.0 mg/kg/injection, schedule: Q01DX009 (ip), vehicle: saline with Tween-80.
[5] abbreviates: endpoint: mean survival time, dose: 100.0 mg/kg/injection, schedule: Q01DX009 (ip), vehicle: saline with Tween-80.

Where “and” joins values, the source holds several entries; their conditions need not be identical. Identical values can stand only once. Toxic doses and inconclusive results are not listed.

On to `CC(=O)OCC1OC(N2C(=O)/C(=C/c3ccc([N+](=O)[O-])cc3)SC2=S)C(OC(C)=O)C(OC(C)=O)C1OC(C)=O` (configuration not stated), for which the T/C is, setting by setting: (endpoint: mean survival time, dose: 0.78 mg/kg/injection, schedule: Q01DX005 (ip), vehicle: distilled water + Tween-80) 96 % of control; (endpoint: mean survival time, dose: 1.56 mg/kg/injection, schedule: Q01DX005 (ip), vehicle: distilled water + Tween-80) 93 % of control; (endpoint: mean survival time, dose: 3.13 mg/kg/injection, schedule: Q01DX005 (ip), vehicle: distilled water + Tween-80) 93 % of control; (endpoint: mean survival time, dose: 6.25 mg/kg/injection, schedule: Q01DX005 (ip), vehicle: distilled water + Tween-80) 90 % of control; (endpoint: mean survival time, dose: 12.5 mg/kg/injection, schedule: Q01DX005 (ip), vehicle: distilled water + Tween-80) 93 % of control.

In the case of `Cn1c(=O)c2[nH]cnc2n(C)c1=O` (tested in a mixture with another compound), the T/C is 98 % of control under setting [1]; 98 % of control (endpoint: mean survival time, dose: 100.0 mg/kg/injection, schedule: Q01DX009 (ip), vehicle: saline sonified); 98 % of control (endpoint: mean survival time, dose: 200.0 mg/kg/injection, schedule: Q01DX009 (ip), vehicle: saline sonified).

On to `N#CCc1ccc2c(c1)Sc1ccccc1O2`, for which the T/C runs as follows: (endpoint: mean survival time, dose: 100.0 mg/kg/injection, schedule: Q04DX003 (ip), vehicle: Klucel (hydroxypropylcellulose) (HPC)) 108 % of control; (endpoint: mean survival time, dose: 200.0 mg/kg/injection, schedule: Q04DX003 (ip), vehicle: Klucel (hydroxypropylcellulose) (HPC)) 98 % of control; (endpoint: mean survival time, dose: 400.0 mg/kg/injection, schedule: Q04DX003 (ip), vehicle: Klucel (hydroxypropylcellulose) (HPC)) 100 % of control.

On to `COc1ccc(NC(=O)Nc2ccc(C)c([N+](=O)[O-])c2)c(OC)c1`, for which the T/C is 97 % of control under setting [2]; 103 % of control under setting [3]; 88 % of control and 94 % of control under setting [4].

With `C/C(=N/NC(=O)c1ccccc1)c1ccc(Cl)cc1Cl`, the T/C (endpoint: mean survival time, dose: 50.0 mg/kg/injection, schedule: Q01DX009 (ip), vehicle: Klucel (hydroxypropylcellulose) (HPC)) is 89 % of control.

In the case of `Cc1cc2nc3c(nc2cc1C)-c1ccccc1C3=O`, the T/C is 94 % of control (endpoint: mean survival time, dose: 100.0 mg/kg/injection, schedule: Q04DX003 (ip), vehicle: saline with Tween-80); 93 % of control (endpoint: mean survival time, dose: 200.0 mg/kg/injection, schedule: Q04DX003 (ip), vehicle: saline with Tween-80); 94 % of control (endpoint: mean survival time, dose: 400.0 mg/kg/injection, schedule: Q04DX003 (ip), vehicle: saline with Tween-80).

Regarding `Cc1ccc(C#N)cn1`, the T/C was 101 % of control under setting [5]; 96 % of control (endpoint: mean survival time, dose: 100.0 mg/kg/injection, schedule: Q04DX003 (ip), vehicle: saline sonified); 97 % of control (endpoint: mean survival time, dose: 200.0 mg/kg/injection, schedule: Q01DX009 (ip), vehicle: saline with Tween-80); 96 % of control (endpoint: mean survival time, dose: 200.0 mg/kg/injection, schedule: Q04DX003 (ip), vehicle: saline sonified); 90 % of control (endpoint: mean survival time, dose: 400.0 mg/kg/injection, schedule: Q01DX009 (ip), vehicle: saline with Tween-80); 89 % of control (endpoint: mean survival time, dose: 400.0 mg/kg/injection, schedule: Q04DX003 (ip), vehicle: saline sonified).

Take `Cc1ccc(S(=O)(=O)SCc2ccccc2)cc1`: the T/C by setting is: (endpoint: mean survival time, dose: 100.0 mg/kg/injection, schedule: Q01DX009 (ip), vehicle: other) 107 % of control; (endpoint: mean survival time, dose: 200.0 mg/kg/injection, schedule: Q01DX009 (ip), vehicle: other) 96 % of control.

On to `CCOC(=O)Nc1n[nH]c(=S)[nH]c1=O`, for which the T/C (endpoint: mean survival time, dose: 100.0 mg/kg/injection, schedule: Q01DX001 (ip), vehicle: carboxymethylcellulose (CMC)) is 96 % of control; the T/C (endpoint: mean survival time, dose: 200.0 mg/kg/injection, schedule: Q01DX001 (ip), vehicle: carboxymethylcellulose (CMC)) is 100 % of control; the T/C (endpoint: mean survival time, dose: 400.0 mg/kg/injection, schedule: Q01DX001 (ip), vehicle: carboxymethylcellulose (CMC)) was 96 % of control.

Regarding `CN(C)CCCc1c2ccccc2nc2ccc(Cl)cc12`, the T/C runs as follows: (endpoint: mean survival time, dose: 12.0 mg/kg/injection, schedule: Q04DX003 (ip), vehicle: saline) 102 % of control; (endpoint: mean survival time, dose: 25.0 mg/kg/injection, schedule: Q04DX003 (ip), vehicle: saline) 94 % of control; (endpoint: mean survival time, dose: 50.0 mg/kg/injection, schedule: Q04DX003 (ip), vehicle: saline) 98 % of control.

`NC(=S)c1cn(C2OC(CO)C(O)C2O)c2ncnc(N)c12` (configuration not stated): the T/C (endpoint: median survival time, dose: 2.5 mg/kg/injection, schedule: Q01DX009 (ip), vehicle: suspension in saline) was 158 % of control; the T/C (endpoint: median survival time, dose: 5.0 mg/kg/injection, schedule: Q01DX009 (ip), vehicle: suspension in saline) is 175 % of control; the T/C (endpoint: median survival time, dose: 10.0 mg/kg/injection, schedule: Q01DX009 (ip), vehicle: suspension in saline) was 91 % of control.

In the case of `NC(N)=N/N=C\c1ccc(/C=N/N=C(N)N)cc1`, the T/C is, setting by setting: (endpoint: mean survival time, dose: 3.0 mg/kg/injection, schedule: Q01DX010 (ip), vehicle: saline) 102 % of control; (endpoint: mean survival time, dose: 5.0 mg/kg/injection, schedule: Q01DX010 (ip), vehicle: saline) 106 % of control; (endpoint: mean survival time, dose: 8.0 mg/kg/injection, schedule: Q01DX010 (ip), vehicle: saline) 110 % of control; (endpoint: mean survival time, dose: 12.0 mg/kg/injection, schedule: Q01DX010 (ip), vehicle: saline) 112 % of control.

For `Cc1c(N)cccc1F`, the T/C reads like this: under setting [1], 95 % of control; (endpoint: mean survival time, dose: 100.0 mg/kg/injection, schedule: Q04DX003 (ip), vehicle: saline) 95 % of control; (endpoint: mean survival time, dose: 200.0 mg/kg/injection, schedule: Q04DX003 (ip), vehicle: saline) 95 % of control.

As for `CC1=NN(c2cccc(S(=O)(=O)O)c2)C(=O)C1N=Nc1cc(Cl)cc(S(=O)(=O)O)c1O.CC1=NN(c2cccc(S(=O)(=O)O)c2)C(=O)C1N=Nc1cc(Cl)cc(S(=O)(=O)O)c1O.[Cr]` (configuration not stated), the T/C runs as follows: (endpoint: median survival time, dose: 25.0 mg/kg/injection, schedule: Q01DX009 (ip), vehicle: saline) 113 % of control; (endpoint: median survival time, dose: 50.0 mg/kg/injection, schedule: Q01DX009 (ip), vehicle: saline) 107 % of control; (endpoint: median survival time, dose: 100.0 mg/kg/injection, schedule: Q01DX009 (ip), vehicle: saline) 101 % of control; (endpoint: median survival time, dose: 200.0 mg/kg/injection, schedule: Q01DX009 (ip), vehicle: saline) 118 % of control; (endpoint: median survival time, dose: 400.0 mg/kg/injection, schedule: Q01DX009 (ip), vehicle: saline) 120 % of control.

Take `O=S(=O)(CCl)OCCCl`: the T/C is, setting by setting: (endpoint: mean survival time, dose: 6.25 mg/kg/injection, schedule: Q01DX009 (ip), vehicle: saline with Tween-80) 101 % of control; under setting [2], 115 % of control and 117 % of control; under setting [3], 120 % of control; under setting [4], 193 % of control; under setting [5], 86 % of control; (endpoint: median survival time, dose: 6.25 mg/kg/injection, schedule: Q01DX009 (ip), vehicle: saline with Tween-80) 101 % of control and 108 % of control. The T/C reads like this: (endpoint: median survival time, dose: 12.5 mg/kg/injection, schedule: Q01DX009 (ip), vehicle: saline with Tween-80) 100 % of control and 104 % of control; (endpoint: median survival time, dose: 50.0 mg/kg/injection, schedule: Q01DX009 (ip), vehicle: saline with Tween-80) 120 % of control; (endpoint: median survival time, dose: 100.0 mg/kg/injection, schedule: Q01DX009 (ip), vehicle: saline with Tween-80) 173 % of control.

On to `OCC1C(CO)C2CC1C1N=NN(c3ccccc3)C21` (configuration not stated), for which the T/C by setting is: (endpoint: mean survival time, dose: 100.0 mg/kg/injection, schedule: Q01DX001 (ip), vehicle: saline sonified) 102 % of control; (endpoint: mean survival time, dose: 200.0 mg/kg/injection, schedule: Q01DX001 (ip), vehicle: saline sonified) 100 % of control; (endpoint: mean survival time, dose: 400.0 mg/kg/injection, schedule: Q01DX001 (ip), vehicle: saline sonified) 100 % of control.

On to `COc1cc(C2c3cc4c(cc3C(OC3CCCCO3)C3COC(=O)C23)OCO4)cc(OC)c1OC` (configuration not stated), for which the T/C is, setting by setting: (endpoint: median survival time, dose: 1.56 mg/kg/injection, schedule: Q01DX009 (ip), vehicle: Klucel (hydroxypropylcellulose) (HPC)) 109 % of control; (endpoint: median survival time, dose: 3.12 mg/kg/injection, schedule: Q01DX009 (ip), vehicle: Klucel (hydroxypropylcellulose) (HPC)) 120 % of control; (endpoint: median survival time, dose: 3.13 mg/kg/injection, schedule: Q01DX009 (ip), vehicle: Klucel (hydroxypropylcellulose) (HPC)) 114 % of control; (endpoint: median survival time, dose: 6.25 mg/kg/injection, schedule: Q01DX009 (ip), vehicle: Klucel (hydroxypropylcellulose) (HPC)) 120 % of control; (endpoint: median survival time, dose: 12.5 mg/kg/injection, schedule: Q01DX009 (ip), vehicle: Klucel (hydroxypropylcellulose) (HPC)) 101 % of control.

Regarding `O=C(O)c1cccc2c1oc1ccccc12`, the T/C is 94 % of control (endpoint: mean survival time, dose: 100.0 mg/kg/injection, schedule: Q04DX002 (ip), vehicle: saline with Tween-80); 94 % of control (endpoint: mean survival time, dose: 200.0 mg/kg/injection, schedule: Q04DX002 (ip), vehicle: saline with Tween-80); 102 % of control (endpoint: mean survival time, dose: 400.0 mg/kg/injection, schedule: Q04DX002 (ip), vehicle: saline with Tween-80).
